{"source": "patent US20190119642A1", "about": "“METHODS AND COMPOSITIONS RELATING TO HEMATOPOIETIC STEM CELL EXPANSION” (CHILDREN'S MEDICAL CENTER CORPORATION, priority 2016, published 2019)", "system": "CD34+ enriched cord blood cells", "test": "Ex vivo expansion of CD34+ enriched cord blood cells, 12 days in culture with small molecules, flow cytometry", "conditions": "for percentage and total number of Lin-CD34+ and Lin- cells: CD34+ cord blood cells cultured in vitro 12 days, FIGS. 21-23", "procedure": "CD34+ enriched cord blood cells were obtained from AllCells. Ten thousand cells were cultured in StemSpan SFEMII containing recombinant human SCF, TPO, IL-3 and FLT3L (all at 100 ng/ml). Cells were cultured with cytokine containing media with the vehicle control (DMSO) or the indicated small molecules. Media was changed every three days. On day twelve, cells were harvested, counted, and analyzed by flow cytometry.\nPlots show samples previously gated through live (PI-) and singlet gates. Gating strategy for immunophenotypic hematopoietic stem cells (HSCs) defined as Lin−CD34+CD45RA−CD90+ and Lin−CD34+CD45RA−CD90+CD49f+EPCR+ HSCs is shown. Percentages indicate the frequency of the parent (previous) gate.\nPlots show samples previously gated through live (PI-) and singlet gates. Gating strategy for immunophenotypic hematopoietic stem cells (HSCs) as Lin−CD34+CD45RA−CD90+ and Lin−CD34+CD45RA−CD90+CD49f+EPCR+ are shown. Percentages indicate the frequency of cells in the parent population.\nDepicted is the total number of live cells after 12 days of culturing 10,000 CD34+ enriched cord blood cells in the indicated conditions.\nCD34+ cord blood cells were cultured in vitro in the presence of different combinations of compounds as described herein."}
{"compound": "C[S+]([O-])c1ccc(-c2nc(-c3ccc(F)cc3)c(-c3ccncc3)[nH]2)cc1", "note": "(centres unmarked) [A, A83-01]", "values": [{"measurement": "percentage and total number of Lin-CD34+ and Lin- cells", "result": "increased"}]}
{"compound": "Nc1cccc2c1C(=O)N(C1CCC(=O)NC1=O)C2=O", "note": "(centres unmarked) [POM, pomalidomide]", "values": [{"measurement": "percentage and total number of Lin-CD34+ and Lin- cells", "result": "increased"}, {"measurement": "percentage and total number of Lin-CD45RA-CD90+ HSCs", "setting": "CD34+ cord blood cells, 12 days culture, FIG. 24, 25", "result": "increased"}, {"measurement": "percentage of Lin-CD45RA-CD90+CD49f+EPCR+ HSCs", "setting": "CD34+ cord blood cells, 12 days culture, FIG. 26, 27", "result": "increased"}]}
{"compound": "CC(C)n1cnc2c(NCCc3ccc(O)cc3)nc(-c3csc4ccccc34)nc21", "note": "[SR1, StemRegenin 1]", "values": [{"measurement": "percentage and total number of Lin-CD34+ and Lin- cells", "result": "increased"}]}
